What all share (assay type): biochemical
The target of one experiment is human t-PA (Homo sapiens (Human), UniProt P00750). The experiment in a line: Inhibition of human tissue-type plasminogen activator. As to conditions: Pefachrome tPA substrate; read-out: h t-PA Ki. How it is done: (§1) The inhibitory effect for the individual enzymes was determined in analogy to a previously disclosed method (Stürzebecher et al., J. Med. Chem., 40, 3091-3099 (1997)).
(§2) 200 μl of TBS (0.05 M trishydroxymethylaminomethane; 0.154 M NaCl, 2% ethanol, pH 8.0)
(§3) 2 μL of a test compound solution in 50% v/v DMSO/water
(§4) For zero order kinetics, the reaction was stopped after 20 min by adding 15 μl of acetic acid (80% v/v), and the absorption at 405 nm was determined using a Microplate Reader (Multiscan Ascent™, from Thermo). In the case of pseudo-first order kinetics, the reaction rates in the equilibrium state were determined by continuously recording the change in absorbance at 405 nm. The Ki values were calculated by parameter fitting in accordance with the rate equation for competitive inhibition using the GraFit software, version 4. The Ki values are the average of at least three determinations.

The target of experiment [1] is human activated C1s complement component (Homo sapiens (Human), UniProt P09871). The experiment in a line: Inhibition of human C1s. As to conditions: S2314 substrate; read-out: h C1s Ki. As to the method:
as §1, §2, §3, §4
Subcomponent “s” of Human Complement Component 1 (h C1s): Inhibition of human C1s was determined by the method described in [0092]-[0098] using native human activated C1s complement component from Calbiochem at 29 nM and Val-Ser-Arg-pNA (S2314) at 8 mM, 6 mM, and 4 mM as substrate; results are reported as Ki values (nanomolar).

A further experiment concerns the target human alpha-thrombin (Homo sapiens (Human), UniProt P00734). The experiment in a line: Inhibition of human Factor IIa. As to conditions: Pefachrome tPA substrate; read-out: h FIIa Ki. As to the method: as §1, §2, §3, §4
In the next experiment the target is plasma kallikrein (Homo sapiens (Human), UniProt P03952). Nature of the experiment: Determination of inhibition constants for human plasma kallikrein (chromogenic substrate). The conditions noted are these: 25° C., S2302 substrate; read-out: h PK Ki. How it is done: (§5) Determination of the Inhibition Constants for Human Plasmin (h Plasmin) and Human Plasma Kallikrein (h PK)
Sequence of plasma kallikrein (P03952 391-638): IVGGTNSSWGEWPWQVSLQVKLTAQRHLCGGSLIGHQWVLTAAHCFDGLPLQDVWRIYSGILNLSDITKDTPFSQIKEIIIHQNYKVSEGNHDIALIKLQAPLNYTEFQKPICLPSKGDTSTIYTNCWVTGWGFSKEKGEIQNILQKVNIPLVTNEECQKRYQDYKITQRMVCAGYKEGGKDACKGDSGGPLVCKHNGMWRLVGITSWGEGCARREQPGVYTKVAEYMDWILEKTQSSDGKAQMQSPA
Sequence of plasma kallikrein (P03952 20-390 partner): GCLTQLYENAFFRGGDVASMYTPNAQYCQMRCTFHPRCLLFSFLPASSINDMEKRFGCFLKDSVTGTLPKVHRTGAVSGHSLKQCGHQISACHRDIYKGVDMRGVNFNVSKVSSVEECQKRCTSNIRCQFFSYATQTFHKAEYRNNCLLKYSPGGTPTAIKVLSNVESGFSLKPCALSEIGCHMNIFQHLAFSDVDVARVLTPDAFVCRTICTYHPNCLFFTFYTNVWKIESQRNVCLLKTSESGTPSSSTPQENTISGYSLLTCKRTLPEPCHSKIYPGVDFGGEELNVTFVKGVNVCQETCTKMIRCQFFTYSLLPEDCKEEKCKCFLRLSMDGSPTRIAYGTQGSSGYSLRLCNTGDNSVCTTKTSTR
as §1, §2
(§6) 25 μl of substrate (4 mM, 2 mM and 1 mM tosyl-Gly-Pro-Lys-pNA=Chromozym PL from LOXO for plasmin and 3 mM, 1.5 mM and 1 mM H-D-Pro-Phe-Arg-pNA=S2302 from Chromogenix for PK, dissolved in H2O)
as §3
(§7) 50 μl of enzyme solution (plasmin from Calbiochem: 1.7 mU/ml in 0.154 M NaCl+0.1% BSA m/v; plasma kallikrein from Enzyme Research Lab.: 62 ng/ml in 0.154 M NaCl+0.1% BSA m/v)
as §4

The next experiment has as its target human urinary kallikrein (Homo sapiens (Human), UniProt P06870). Nature of the experiment: Inhibition of human urinary kallikrein. The conditions noted are these: S-2266 substrate; read-out: h uKK Ki. As to the method:
as §1, §2, §3, §4

The target in experiment [2] is human activated C1r complement component (Homo sapiens (Human), UniProt P00736). Nature of the experiment: Inhibition of human C1r. The conditions noted are these: S2314 substrate; read-out: h C1r Ki. How it is done: as §1, §2, §3, §4
For the next experiment, the target named is human alpha-FXIIa (Homo sapiens (Human), UniProt P00748). Nature of the experiment: Inhibition of human alpha-Factor XIIa. The conditions noted are these: CHA-Gly-Arg-pNA substrate; read-out: h FXIIa Ki. How it is done: as §1, §2, §3, §4
Sequence of human alpha-FXIIa (P00748 373-615): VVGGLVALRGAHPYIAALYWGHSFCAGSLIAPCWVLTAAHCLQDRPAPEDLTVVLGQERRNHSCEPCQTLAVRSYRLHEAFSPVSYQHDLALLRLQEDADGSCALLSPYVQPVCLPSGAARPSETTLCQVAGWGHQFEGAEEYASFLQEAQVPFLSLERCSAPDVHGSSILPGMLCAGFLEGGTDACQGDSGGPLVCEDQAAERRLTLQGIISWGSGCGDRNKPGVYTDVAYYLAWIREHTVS
Sequence of human alpha-FXIIa (P00748 20-372 partner): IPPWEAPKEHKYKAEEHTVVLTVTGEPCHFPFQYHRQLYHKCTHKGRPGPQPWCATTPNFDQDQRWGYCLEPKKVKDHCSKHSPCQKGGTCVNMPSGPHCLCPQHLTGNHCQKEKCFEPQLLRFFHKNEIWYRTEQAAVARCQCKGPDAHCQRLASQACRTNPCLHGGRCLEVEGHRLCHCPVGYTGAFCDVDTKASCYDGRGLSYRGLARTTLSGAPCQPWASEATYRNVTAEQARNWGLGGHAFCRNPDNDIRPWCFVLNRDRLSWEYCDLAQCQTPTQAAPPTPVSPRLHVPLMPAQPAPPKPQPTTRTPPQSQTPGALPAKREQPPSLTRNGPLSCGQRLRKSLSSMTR
Another experiment concerns the target human Factor Xa (Homo sapiens (Human), UniProt P00742). The experiment in a line: Inhibition of human Factor Xa. The conditions noted are these: Pefachrome FXa substrate; read-out: h FXa Ki. How it is done:
The inhibitory effect for the individual enzymes was determined in analogy to a previously disclosed method (Stürzebecher et al., J. Med. […] In the case of pseudo-first order kinetics, the reaction rates in the equilibrium state were determined by continuously recording the change in absorbance at 405 nm. […] The Ki values are the average of at least three determinations. Human Factor Xa (h FXa): […]

A further experiment has as its target plasmin (Homo sapiens (Human), UniProt P00747). Nature of the experiment: Determination of inhibition constants for human plasmin (chromogenic substrate). The conditions noted are these: 25° C., Chromozym PL substrate; read-out: h plasmin Ki. How it is done:
as §5, §1, §2, §6, §3, §7, §4

Experiment [3] has as its target human activated protein C (Homo sapiens (Human), UniProt P04070). Nature of the experiment: Inhibition of human activated protein C. The conditions noted are these: Pefachrome PCa substrate; read-out: h aPC Ki. How it is done:
as §1, §2, §3, §4

For a further experiment, the target named is human Factor XIa (Homo sapiens (Human), UniProt P03951). The experiment in a line: Inhibition of human Factor XIa. As to conditions: Pefachrome PCa substrate; read-out: h FXIa Ki. As to the method:
as §1, §2, §3, §4

The text below walks through data of patent US8598206B2, “Trypsin-like serine protease inhibitors, and their preparation and use” (The Medicines Company (Leipzig) GmbH, priority 2010, dated 2013).

Sequence of human activated C1s complement component (P09871 438-688): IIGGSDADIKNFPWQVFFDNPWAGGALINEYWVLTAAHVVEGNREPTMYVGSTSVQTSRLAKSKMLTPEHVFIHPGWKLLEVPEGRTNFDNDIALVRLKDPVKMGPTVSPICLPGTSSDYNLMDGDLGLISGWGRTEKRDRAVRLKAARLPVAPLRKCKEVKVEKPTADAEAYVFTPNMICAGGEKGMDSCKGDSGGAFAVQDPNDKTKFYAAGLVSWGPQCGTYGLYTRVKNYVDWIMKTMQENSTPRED
Sequence of human activated C1s complement component (P09871 16-437 partner): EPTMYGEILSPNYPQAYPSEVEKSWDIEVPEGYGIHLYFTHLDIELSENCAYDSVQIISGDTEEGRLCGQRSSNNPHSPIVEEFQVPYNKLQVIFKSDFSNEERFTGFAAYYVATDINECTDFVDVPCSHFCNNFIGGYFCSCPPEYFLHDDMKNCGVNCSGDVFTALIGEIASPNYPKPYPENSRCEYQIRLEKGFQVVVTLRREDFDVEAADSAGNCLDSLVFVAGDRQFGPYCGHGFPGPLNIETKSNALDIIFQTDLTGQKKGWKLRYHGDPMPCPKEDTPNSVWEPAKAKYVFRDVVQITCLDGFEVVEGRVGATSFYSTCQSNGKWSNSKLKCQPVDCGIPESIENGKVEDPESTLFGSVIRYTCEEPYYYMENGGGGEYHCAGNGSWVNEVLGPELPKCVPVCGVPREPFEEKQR
Sequence of human urinary kallikrein (P06870 25-262): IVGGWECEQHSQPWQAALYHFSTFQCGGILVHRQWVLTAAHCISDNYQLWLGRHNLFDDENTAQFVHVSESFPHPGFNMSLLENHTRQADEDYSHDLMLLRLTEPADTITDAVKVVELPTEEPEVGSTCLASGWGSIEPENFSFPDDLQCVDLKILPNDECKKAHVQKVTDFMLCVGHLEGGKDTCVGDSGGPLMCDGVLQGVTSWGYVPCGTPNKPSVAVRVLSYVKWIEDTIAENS
Sequence of human t-PA (P00750 36-562): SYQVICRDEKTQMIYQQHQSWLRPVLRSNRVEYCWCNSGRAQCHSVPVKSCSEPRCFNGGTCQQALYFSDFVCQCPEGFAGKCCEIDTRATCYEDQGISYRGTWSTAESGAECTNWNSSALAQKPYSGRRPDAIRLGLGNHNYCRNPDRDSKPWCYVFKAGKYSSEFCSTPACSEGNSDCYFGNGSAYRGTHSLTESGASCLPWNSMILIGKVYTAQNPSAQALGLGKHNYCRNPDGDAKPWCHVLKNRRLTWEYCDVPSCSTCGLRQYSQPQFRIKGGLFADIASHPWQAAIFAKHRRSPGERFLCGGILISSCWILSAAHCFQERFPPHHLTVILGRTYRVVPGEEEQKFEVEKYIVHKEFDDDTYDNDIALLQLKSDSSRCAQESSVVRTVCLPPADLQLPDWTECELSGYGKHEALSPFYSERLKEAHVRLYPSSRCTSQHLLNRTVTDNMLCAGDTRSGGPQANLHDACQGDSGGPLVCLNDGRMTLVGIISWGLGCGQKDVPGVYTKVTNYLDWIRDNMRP
Sequence of human Factor XIa (P03951 388-625): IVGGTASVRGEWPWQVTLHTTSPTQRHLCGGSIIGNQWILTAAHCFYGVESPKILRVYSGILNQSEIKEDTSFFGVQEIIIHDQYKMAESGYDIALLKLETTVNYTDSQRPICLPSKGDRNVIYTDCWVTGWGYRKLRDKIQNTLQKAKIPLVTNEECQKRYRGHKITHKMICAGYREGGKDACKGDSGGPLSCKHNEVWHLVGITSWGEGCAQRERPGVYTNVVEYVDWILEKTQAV
Sequence of human Factor XIa (P03951 19-387 partner): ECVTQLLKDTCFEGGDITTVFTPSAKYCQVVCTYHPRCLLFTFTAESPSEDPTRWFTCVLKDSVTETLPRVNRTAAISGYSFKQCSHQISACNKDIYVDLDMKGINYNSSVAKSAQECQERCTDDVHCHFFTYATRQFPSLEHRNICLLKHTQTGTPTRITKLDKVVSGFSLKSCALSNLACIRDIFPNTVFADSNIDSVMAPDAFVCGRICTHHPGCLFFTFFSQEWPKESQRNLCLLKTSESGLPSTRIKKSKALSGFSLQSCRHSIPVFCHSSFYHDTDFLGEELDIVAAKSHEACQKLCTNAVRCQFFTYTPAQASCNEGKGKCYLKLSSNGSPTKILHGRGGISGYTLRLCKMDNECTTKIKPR
Sequence of plasmin (P00747 581-810): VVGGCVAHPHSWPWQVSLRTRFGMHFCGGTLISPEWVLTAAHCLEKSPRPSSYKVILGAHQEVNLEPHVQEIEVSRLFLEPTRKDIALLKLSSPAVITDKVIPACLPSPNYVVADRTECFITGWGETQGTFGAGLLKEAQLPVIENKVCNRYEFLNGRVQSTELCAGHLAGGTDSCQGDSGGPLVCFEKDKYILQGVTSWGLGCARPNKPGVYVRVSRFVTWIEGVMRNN
Sequence of plasmin (P00747 97-580 partner): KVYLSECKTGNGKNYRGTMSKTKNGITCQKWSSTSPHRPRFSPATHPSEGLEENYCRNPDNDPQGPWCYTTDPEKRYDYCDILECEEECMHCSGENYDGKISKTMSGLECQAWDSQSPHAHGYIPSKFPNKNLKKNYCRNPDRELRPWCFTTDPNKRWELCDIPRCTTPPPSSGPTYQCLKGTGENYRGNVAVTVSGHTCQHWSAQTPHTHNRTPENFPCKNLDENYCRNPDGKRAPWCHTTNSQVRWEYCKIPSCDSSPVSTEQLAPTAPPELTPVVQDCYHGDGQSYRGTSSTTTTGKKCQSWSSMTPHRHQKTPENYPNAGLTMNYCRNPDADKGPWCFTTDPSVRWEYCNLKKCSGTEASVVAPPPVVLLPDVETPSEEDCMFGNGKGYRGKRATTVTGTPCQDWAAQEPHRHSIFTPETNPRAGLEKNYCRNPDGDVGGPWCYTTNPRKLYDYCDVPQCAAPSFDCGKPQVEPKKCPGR
Sequence of human Factor Xa (P00742 235-488): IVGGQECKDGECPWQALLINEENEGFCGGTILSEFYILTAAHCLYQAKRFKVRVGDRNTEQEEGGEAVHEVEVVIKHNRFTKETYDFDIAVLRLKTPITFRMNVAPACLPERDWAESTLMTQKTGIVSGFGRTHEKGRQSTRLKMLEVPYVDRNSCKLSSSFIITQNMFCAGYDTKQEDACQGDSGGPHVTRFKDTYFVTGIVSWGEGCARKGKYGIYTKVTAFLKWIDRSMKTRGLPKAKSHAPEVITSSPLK
Sequence of human Factor Xa (P00742 41-179 partner): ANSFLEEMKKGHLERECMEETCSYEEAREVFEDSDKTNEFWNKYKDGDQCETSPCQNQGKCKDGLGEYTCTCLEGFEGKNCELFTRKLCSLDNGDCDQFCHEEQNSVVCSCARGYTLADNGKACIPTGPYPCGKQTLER
Sequence of human activated protein C (P04070 212-450): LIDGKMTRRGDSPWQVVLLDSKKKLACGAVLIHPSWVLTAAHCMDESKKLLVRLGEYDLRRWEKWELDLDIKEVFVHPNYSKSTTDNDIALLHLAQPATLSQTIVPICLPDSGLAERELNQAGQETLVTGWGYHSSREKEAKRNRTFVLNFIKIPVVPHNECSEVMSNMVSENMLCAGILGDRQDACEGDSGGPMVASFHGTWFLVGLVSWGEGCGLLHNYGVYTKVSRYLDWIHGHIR
Sequence of human activated protein C (P04070 43-197 partner): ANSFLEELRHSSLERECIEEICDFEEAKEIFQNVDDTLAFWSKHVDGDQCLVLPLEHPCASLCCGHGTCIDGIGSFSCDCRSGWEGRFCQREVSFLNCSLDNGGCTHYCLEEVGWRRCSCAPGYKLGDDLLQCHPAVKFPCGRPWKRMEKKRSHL

One may read the Ki as the dissociation constant of the complex between target and ligand, obtained from inhibition or displacement. Regarding `CN(C)C(=O)N1CCC(CC[C@@H](NS(=O)(=O)Cc2ccccc2)C(=O)N[C@@H](CCC2CCNCC2)C(=O)NCc2ccc(C(=N)N)cc2)CC1`, the inhibitory constant (Ki) at human t-PA is 8.3 µM; in experiment [1] it was 13 µM; on human alpha-thrombin it was 13 µM; at plasma kallikrein, 0.004 µM; on human urinary kallikrein it was greater than 200 µM; in [2], greater than 50 µM. Moreover, the Ki is 2 µM on human alpha-FXIIa; 2.5 µM on human Factor Xa; 0.0008 µM at plasmin; 1.6 µM in [3]; 1.5 µM on human Factor XIa.
For `COC(=O)c1cccc(CS(=O)(=O)N[C@H](CCCc2ccccc2)C(=O)N[C@@H](CCC2CCNCC2)C(=O)NCc2ccc(C(=N)N)cc2)c1`, the Ki is 3.9 µM at human t-PA; 4.8 µM in experiment [1]; 0.92 µM on human alpha-thrombin; 0.0094 µM at plasma kallikrein; greater than 20 µM on human urinary kallikrein; greater than 30 µM in experiment [2]. In addition, the inhibitory constant (Ki) at human alpha-FXIIa is greater than 10 µM; at human Factor Xa, 5.9 µM; at plasmin, 0.0027 µM; in [3], 0.57 µM; at human Factor XIa, 0.5 µM.
For the molecule `N=C(N)c1ccc(CNC(=O)[C@H](CCC2CCNCC2)NC(=O)[C@@H](CCCc2cc[n+]([O-])cc2)NS(=O)(=O)Cc2ccccc2)cc1` [drawing 117], the Ki at human t-PA is 2.4 µM; in [1], 10 µM; at human alpha-thrombin, 4.9 µM; on plasma kallikrein, 0.004 µM; on human urinary kallikrein, greater than 200 µM; in [2] it was greater than 30 µM. Further, the Ki stood at 0.87 µM at human alpha-FXIIa; 0.4 µM on human Factor Xa; 0.001 µM on plasmin; 0.85 µM in experiment [3]; 1.4 µM on human Factor XIa.
Take `CNC(=O)N1CCC(CC[C@@H](NS(=O)(=O)Cc2ccccc2)C(=O)N[C@@H](CCC2CCNCC2)C(=O)NCc2ccc(C(=N)N)cc2)CC1`: the Ki on human t-PA was 5.3 µM; in [1] it was greater than 20 µM; at human alpha-thrombin, 4.8 µM; at plasma kallikrein, 0.002 µM; at human urinary kallikrein, greater than 200 µM; in experiment [2], greater than 20 µM. Moreover, the Ki worked out at 0.55 µM on human alpha-FXIIa; 1.7 µM on human Factor Xa; 0.001 µM on plasmin; 1.1 µM in experiment [3]; 1.3 µM on human Factor XIa.
Take `N=C(N)c1ccc(CNC(=O)[C@H](CCC2CCNCC2)NC(=O)[C@@H](CCCc2ccncc2)NS(=O)(=O)Cc2ccccc2)cc1`: the Ki was 2.3 µM at human t-PA; 4.95 µM in experiment [1]; 1.2 µM on human alpha-thrombin; 0.0027 µM on plasma kallikrein; greater than 80 µM on human urinary kallikrein; greater than 50 µM in experiment [2]. The Ki at human alpha-FXIIa turned out to be 1.5 µM; on human Factor Xa, 0.85 µM; at plasmin, 0.0004 µM; in [3], 0.6 µM; at human Factor XIa, 0.5 µM.
Turning to `N=C(N)c1ccc(CNC(=O)[C@H](CCC2CCNCC2)NC(=O)[C@@H](CCCc2cc[n+]([O-])cc2)NS(=O)(=O)Cc2ccccc2)cc1` [drawing 123], the Ki is 2.4 µM on human t-PA; 9.5 µM in experiment [1]; 4.9 µM at human alpha-thrombin; 0.004 µM on plasma kallikrein; greater than 200 µM at human urinary kallikrein; greater than 30 µM in [2]. Further, the Ki on human alpha-FXIIa was 0.87 µM; on human Factor Xa, 0.4 µM; at plasmin, 0.001 µM; in [3], 0.85 µM; at human Factor XIa, 1.4 µM.
Turning to `CCCC(=O)N1CCC(CC[C@@H](NS(=O)(=O)Cc2ccccc2)C(=O)N[C@@H](CCC2CCNCC2)C(=O)NCc2ccc(C(=N)N)cc2)CC1`, the Ki is 6.1 µM on human t-PA; greater than 10 µM in experiment [1]; 5.5 µM on human alpha-thrombin; 0.002 µM at plasma kallikrein; greater than 200 µM on human urinary kallikrein; greater than 15 µM in experiment [2]. For the same molecule, the Ki at human alpha-FXIIa was 0.8 µM; at human Factor Xa it was 2.2 µM; at plasmin, 0.0006 µM; in [3] it was 1.1 µM; at human Factor XIa, 0.87 µM.
Turning to `CC(C)C(=O)N1CCC(CC[C@@H](NS(=O)(=O)Cc2ccccc2)C(=O)N[C@@H](CCC2CCNCC2)C(=O)NCc2ccc(C(=N)N)cc2)CC1`, the Ki on human t-PA was 6.5 µM; in experiment [1], greater than 25 µM; on human alpha-thrombin it was 13 µM; at plasma kallikrein, 0.0015 µM; at human urinary kallikrein, greater than 200 µM; in experiment [2] it was greater than 30 µM. The Ki came to 1.3 µM at human alpha-FXIIa; 3.2 µM at human Factor Xa; 0.0006 µM at plasmin; 1.7 µM in experiment [3]; 0.92 µM on human Factor XIa.
As for `CC(=O)N1CCC(CC[C@@H](NS(=O)(=O)Cc2ccccc2)C(=O)N[C@@H](CCC2CCNCC2)C(=O)NCc2ccc(C(=N)N)cc2)CC1`, the Ki at human t-PA is 4.8 µM; in [1], greater than 20 µM; on human alpha-thrombin, 8 µM; on plasma kallikrein, 0.005 µM; at human urinary kallikrein, greater than 20 µM; in experiment [2] it was greater than 40 µM. The Ki came out at 0.53 µM on human alpha-FXIIa; 1.9 µM at human Factor Xa; 0.0018 µM at plasmin; 1.2 µM in experiment [3]; 1.4 µM on human Factor XIa.
`N=C(N)c1ccc(CNC(=O)[C@H](CCC2CCNCC2)NC(=O)[C@@H](CCC2CCN(C(=O)C3CC3)CC2)NS(=O)(=O)Cc2ccccc2)cc1`: the Ki was 6.1 µM on human t-PA; 19 µM in experiment [1]; 8.5 µM at human alpha-thrombin; 0.0003 µM at plasma kallikrein; greater than 50 µM on human urinary kallikrein; greater than 50 µM in experiment [2]. Moreover, the Ki amounted to 1.1 µM on human alpha-FXIIa; 2.3 µM on human Factor Xa; 0.0006 µM at plasmin; 1.5 µM in experiment [3]; 0.65 µM on human Factor XIa.
Regarding `COCC(=O)N1CCC(CC[C@@H](NS(=O)(=O)Cc2ccccc2)C(=O)N[C@@H](CCC2CCNCC2)C(=O)NCc2ccc(C(=N)N)cc2)CC1`, the Ki was 4.7 µM on human t-PA; 20 µM in experiment [1]; 4.5 µM on human alpha-thrombin; 0.0013 µM at plasma kallikrein; greater than 100 µM at human urinary kallikrein; greater than 50 µM in experiment [2]. The Ki stood at 0.68 µM at human alpha-FXIIa; 1.6 µM at human Factor Xa; 0.0012 µM at plasmin; 1.2 µM in experiment [3]; 1.4 µM on human Factor XIa.
Regarding `COC(=O)N1CCC(CC[C@@H](NS(=O)(=O)Cc2ccccc2)C(=O)N[C@@H](CCC2CCNCC2)C(=O)NCc2ccc(C(=N)N)cc2)CC1`, the Ki at human t-PA was 6.6 µM; in [1] it was greater than 10 µM; at human alpha-thrombin it was 13 µM; at plasma kallikrein, 0.002 µM; at human urinary kallikrein, greater than 200 µM; in experiment [2], greater than 20 µM. Besides, the Ki at human alpha-FXIIa is 1.6 µM; at human Factor Xa, 2 µM; on plasmin, 0.0007 µM; in [3], 1.35 µM; on human Factor XIa, 0.72 µM.
Turning to `N=C(N)c1ccc(CNC(=O)[C@H](CCC2CCNCC2)NC(=O)[C@@H](CCCc2ccccc2)NS(=O)(=O)Cc2ccccc2)cc1`, the Ki at human t-PA is 1.7 µM; in [1], greater than 5 µM; on human alpha-thrombin, 0.24 µM; at plasma kallikrein, 0.0015 µM; on human urinary kallikrein, greater than 50 µM; on human alpha-FXIIa, 3 µM. In addition, the Ki is 1.1 µM on human Factor Xa, 0.00025 µM on plasmin, 0.555 µM in [3] and 0.135 µM at human Factor XIa.
